Results on 7 compounds are retold here after PMC7588595, “Small-molecule active pharmaceutical ingredients of approved cancer therapeutics inhibit human aspartate/asparagine-β-hydroxylase” (Bioorganic & Medicinal Chemistry, 2020).

Assay [1] concerns the target T1, human AspH (His6-AspH315–758) (Homo sapiens, UniProt Q12797).
T1 construct: N-Terminally His6-tagged human AspH315–758 (His6-AspH315–758) was produced in Escherichia coli BL21 (DE3) cells; made in house; host or cells: Escherichia coli BL21 (DE3), pET-28a(+) vector
T1 sequence (Q12797 315-758): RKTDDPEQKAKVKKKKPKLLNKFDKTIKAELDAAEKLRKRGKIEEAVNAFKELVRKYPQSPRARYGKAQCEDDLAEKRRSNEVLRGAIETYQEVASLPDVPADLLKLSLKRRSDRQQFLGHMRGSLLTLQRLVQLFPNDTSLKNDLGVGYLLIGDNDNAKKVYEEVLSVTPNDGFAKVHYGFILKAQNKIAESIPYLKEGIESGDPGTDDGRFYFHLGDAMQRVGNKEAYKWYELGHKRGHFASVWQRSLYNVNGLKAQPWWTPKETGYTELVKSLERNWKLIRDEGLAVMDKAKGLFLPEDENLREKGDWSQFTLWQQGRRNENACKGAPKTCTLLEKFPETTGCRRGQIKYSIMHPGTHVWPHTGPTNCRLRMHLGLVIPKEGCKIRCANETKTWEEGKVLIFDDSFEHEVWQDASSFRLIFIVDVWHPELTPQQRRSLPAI
Put plainly: SPE-MS AspH inhibition assay (hFX-CP101-119 substrate hydroxylation). Type of assay: biochemical. Conditions: for inhibition at 20 µM / AspH inhibition at 20 μM: 20 μM fixed inhibitor, relative to DMSO and 2,4-PDCA controls; for Hill coefficient of AspH inhibition curves: dose-response curves of SPE-MS AspH inhibition assay; for remaining activity at 20 µM: 20 μM fixed inhibitor concentration.

Assay [2] deals with T2, His6-AspH315–758 (Homo sapiens, UniProt Q12797).
T2 construct: A mixture of SYPRO orange (1‰v/v) and His6-AspH315–758 (4 μM) in 50 mM aqueous HEPES buffer; made in house; host or cells: Escherichia coli BL21 (DE3), pET-28a(+) vector
T2 sequence (Q12797 315-758): T1 sequence (Q12797 315-758)
Put plainly: AspH differential scanning fluorimetry (DSF) assay, melting temperature shift. The assay is classed as binding. As to conditions: 40 μM inhibitor, 4 μM His6-AspH315–758, with respect to DMSO controls; for ΔTm at 40 µM: read-out: Tm-shift (ΔTm) of AspH. The protocol: A mixture of SYPRO orange (1‰v/v) and His6-AspH315–758 (4 μM) in 50 mM aqueous HEPES buffer (pH 7.5, 150 mM NaCl, 50 μM NiCl2) was carefully pipetted into a 96-well VWR PCR-plate (38 μL per well). An inhibitor solution (0.8 mM in DMSO) or a negative control sample (pure DMSO) was added to each well (2 μL per well, final inhibitor concentration of 40 μM) and the resulting solutions were gently mixed using a pipette. The plate was sealed with optical tape (Bio-Rag, iCycler iQ), centrifuged (5 sec, 1000 rpm) and placed into a C1000Touch Thermal Cycler equipped with a CFX96 Real-Time System (Bio-Rad). The instrument was heated with a rate of 1 °C per cycle (starting at an initial temperature of 25 °C; 70 cycles total). Data were analyzed using Microsoft Excel and GraphPad Prism according to the literature.[107] DSF assays were performed in independent duplicates, each composed of technical duplicates (Supporting Fig. S4).

In assay [3] the test system is Bcl-XL. As to conditions: fluorescence polarisation, 30 nM enzyme concentration; cited from earlier work.
Setting [4] is: 50 nM His6-AspH315–758, 1 μM hFX-CP101–119, 100 μM LAA, 3 μM 2OG, 2 μM FAS, 50 mM HEPES pH 7.5, 20 °C, read-out: IC50.
Where [5] appears, read: 50 nM His6-AspH315–758, 1 μM hFX-CP101–119, 100 μM LAA, 3 μM 2OG, 2 μM FAS, 50 mM HEPES pH 7.5, 20 °C.
[6] abbreviates: read-out: IC50 at 10 μM substrate, 10 μM hFX-CP101–119 and 10 μM 2OG instead of 1 μM hFX-CP101–119 and 3 μM 2OG.
Where [7] appears, read: read-out: IC50 at 200 μM 2OG, 200 μM 2OG instead of 3 μM 2OG.
[8] abbreviates: read-out: IC50 at 20 μM Fe(II), 20 μM Fe(II) instead of 2 μM Fe(II).

Like-named read-outs stand apart in the source and are kept apart here.

As for `O=C(O)c1ccnc(C(=O)O)c1` [2,4-PDCA, Pyridine-2,4-dicarboxylic acid, reference compound], the half-inhibitory concentration (IC50) in assay [1] (setting [4]) amounted to 0.02 ± 0.01 µM; in assay [1] (setting [6]), 0.02 ± 0.01 µM; in assay [1] (setting [7]) it was 0.1 ± 0.03 µM. For the same compound, the inhibition at 20 µM in assay [1] (setting [5]) was 100 ± 0.6%. Also, the ΔTm at 40 µM in assay [2] came to 3.2 ± 0.4 °C.
Regarding `Cc1cc2c(C(C)C)c(O)c(O)c(C=O)c2c(O)c1-c1c(C)cc2c(C(C)C)c(O)c(O)c(C=O)c2c1O` [(R)-Gossypol, reference compound], the half-inhibitory concentration (IC50) in assay [3] was ~0.5 µM; in assay [1] (setting [4]), 0.25 ± 0.01 µM; in assay [1] (setting [6]), 0.33 ± 0.02 µM; in assay [1] (setting [8]) it was 0.26 ± 0.03 µM; in assay [1] (setting [7]), 0.25 ± 0.01 µM. In assay [1] (setting [5]), the “AspH inhibition at 20 μM” value is reported as “Complete suppression of AspH activity”. Also, in assay [1] (setting [5]), the inhibition at 20 µM turned out to be 101 ± 2.3%.
As to `CN(C)CC[C@H](CSc1ccccc1)Nc1ccc(S(=O)(=O)NC(=O)c2ccc(N3CCN(Cc4ccccc4-c4ccc(Cl)cc4)CC3)cc2)cc1[N+](=O)[O-]` [ABT-737, reference compound], the IC50 is 3.38 ± 0.34 µM in assay [1] (setting [4]), 2.99 ± 0.35 µM in assay [1] (setting [6]), 2.92 ± 0.88 µM in assay [1] (setting [8]) and 4.47 ± 1.32 µM in assay [1] (setting [7]). Besides, the ΔTm at 40 µM in assay [2] came out at 1.5 ± 0.1 °C.
Take `O=C(/C=C/c1cccc(S(=O)(=O)Nc2ccccc2)c1)NO` [Belinostat, reference compound]: the 50% inhibitory concentration (IC50) in assay [1] (setting [4]) was determined as 7.49 ± 1.26 µM; in assay [1] (setting [6]) it was 4.77 ± 0.1 µM; in assay [1] (setting [8]), 3.1 ± 1.44 µM; in assay [1] (setting [7]), 11.2 ± 4 µM. Moreover, the “AspH inhibition at 20 μM” value in assay [1] (setting [5]) is recorded as 97.1 ± 0.2%. Moreover, the inhibition at 20 µM in assay [1] (setting [5]) is > 90%. Besides, the “Hill coefficient of AspH inhibition curves” value in assay [1] is listed as < -2.0. Further, in assay [2], the ΔTm at 40 µM turned out to be 0.1 ± 0.2 °C.
In the case of `CC1(C)CCC(c2ccc(Cl)cc2)=C(CN2CCN(c3ccc(C(=O)NS(=O)(=O)c4ccc(N[C@H](CCN5CCOCC5)CSc5ccccc5)c(S(=O)(=O)C(F)(F)F)c4)cc3)CC2)C1` [Navitoclax, reference compound], the IC50 in assay [1] (50 nM His6-AspH315–758, 1 μM hFX-CP101–119, 100 μM LAA, 3 μM 2OG, 2 μM FAS, 50 mM HEPES pH 7.5, 20 °C, listed as navitoclax, read-out: IC50) was ~1 µM; in assay [1] (setting [4]), 1.03 ± 0.12 µM; in assay [1] (setting [6]), 1.21 ± 0.04 µM; in assay [1] (setting [8]) it was 0.8 ± 0.42 µM; in assay [1] (setting [7]), 1.33 ± 0.17 µM. Besides, the remaining activity at 20 µM in assay [1] was ~10%. Besides, the inhibition at 20 µM in assay [1] (setting [5]) is 90.1 ± 0.1%. In addition, the ΔTm at 40 µM in assay [2] was -2.1 ± 0.3 °C.
Turning to `CC1(C)CCC(CN2CCN(c3ccc(C(=O)NS(=O)(=O)c4ccc(NCC5CCOCC5)c([N+](=O)[O-])c4)c(Oc4cnc5[nH]ccc5c4)c3)CC2)=C(c2ccc(Cl)cc2)C1` [Venetoclax, reference compound], the IC50 in assay [1] (50 nM His6-AspH315–758, 1 μM hFX-CP101–119, 100 μM LAA, 3 μM 2OG, 2 μM FAS, 50 mM HEPES pH 7.5, 20 °C, listed as venetoclax, read-out: IC50) is ~1.4 µM; in assay [1] (setting [4]), 1.4 ± 0.14 µM; in assay [1] (setting [6]), 1.57 ± 0.21 µM; in assay [1] (setting [8]) it was 1.29 ± 0.24 µM; in assay [1] (setting [7]) it was 1.52 ± 0.24 µM. Besides, the remaining activity at 20 µM in assay [1] is ~3%. In assay [1] (setting [5]), the inhibition at 20 µM was 97.2 ± 0.2%. The “Plate 1 (% inhibition)” value in assay [1] (AspH-inhibitor screening, 384-well Plate 1) is given as 97.05%. Further, the “Plate 1 (% conversion)” value in assay [1] (AspH-inhibitor screening, 384-well Plate 1, substrate conversion) came out at 4.94%. For the same compound, the “Plate 1-duplicate (% inhibition)” value in assay [1] (AspH-inhibitor screening, Plate 1-duplicate) amounted to 97.31%. Besides, the “Plate 1-duplicate (% conversion)” value in assay [1] (AspH-inhibitor screening, Plate 1-duplicate, substrate conversion) is 3.78%. Also, the “selectivity for Bcl-2 over AspH” value in assay [1] (Bcl-2 inhibited more efficiently than AspH) is ~ 1000 fold. The “Hill coefficient of AspH inhibition curves” value in assay [1] was < -2.0. The ΔTm at 40 µM in assay [2] came to 0.7 ± 0.3 °C.
As to Mithramycin A [reference compound], the “Tm-shift (ΔTm) of AspH” value in assay [2] came to 0.4 ± 0.2 °C.

Broadly, the IC50 is the concentration that gives 50% inhibition. As usually defined, the inhibition is the relative decrease from the control value, in per cent. Broadly, the remaining activity is the activity still measured, relative to the control.
